# Data reported in patent publication USRE49687E1, “Thienopyrimidine and thienopyridine compounds and methods of use thereof” (The Regents of The University of Michigan, priority 2014, dated 2023).
# Where “and” joins values, the source holds several entries; their conditions need not be identical. Equal entries are not always repeated.
# Biological target: T1, menin-MLL interaction (Homo sapiens, UniProt O00255)
# T1 sequence (O00255 1-610): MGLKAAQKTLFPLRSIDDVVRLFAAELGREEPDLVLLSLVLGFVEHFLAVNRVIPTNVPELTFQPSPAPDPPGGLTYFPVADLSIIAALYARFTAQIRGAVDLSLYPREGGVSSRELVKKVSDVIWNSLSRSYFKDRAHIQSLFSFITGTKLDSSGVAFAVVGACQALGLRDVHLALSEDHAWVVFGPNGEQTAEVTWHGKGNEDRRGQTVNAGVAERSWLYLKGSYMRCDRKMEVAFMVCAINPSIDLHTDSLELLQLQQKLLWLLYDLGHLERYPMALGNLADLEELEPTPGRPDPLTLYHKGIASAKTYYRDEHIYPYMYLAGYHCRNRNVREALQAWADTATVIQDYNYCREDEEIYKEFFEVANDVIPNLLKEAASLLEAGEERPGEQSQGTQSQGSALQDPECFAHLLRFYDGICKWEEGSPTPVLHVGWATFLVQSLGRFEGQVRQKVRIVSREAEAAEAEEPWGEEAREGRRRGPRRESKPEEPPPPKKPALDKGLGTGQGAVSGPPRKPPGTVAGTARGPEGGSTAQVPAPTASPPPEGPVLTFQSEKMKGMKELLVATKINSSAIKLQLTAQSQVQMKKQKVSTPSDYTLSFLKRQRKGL
# Assay: Fluorescence polarization (FP) competition assay of the menin-MLL interaction
# Type: binding
# Details: inhibition of the menin-MLL interaction; read-out: IC50 values for Table 1 inhibitors of menin
row,IC50,SMILES
1,30 to 100 nM,C#CC(=O)N1CCN(CCn2c(C#N)cc3c(C)c(CN4CCC(Nc5ncnc6sc(CC(F)(F)F)cc56)CC4)ccc32)CC1 [Compound 5]
2,30 to 100 nM,C=CC(=O)NCc1cc(Cn2c(C#N)cc3c(C)c(CN4CCC(Nc5ncnc6sc(CC(F)(F)F)cc56)CC4)ccc32)n[nH]1 [Compound 10]
3,30 to 100 nM,C=CC(=O)NC1CN(CCn2c(C#N)cc3c(C)c(CN4CCC(Nc5ncnc6sc(CC(F)(F)F)cc56)CC4)ccc32)C1 [Compound 28]
4,< 30 nM,C=CC(=O)NC1CCN(CCn2c(C#N)cc3c(C)c(CN4CCC(Nc5ncnc6sc(CC(F)(F)F)cc56)CC4)ccc32)C1 (stereo not shown) [Compound 29]
5,< 30 nM,C=CC(=O)N[C@H]1CCN(CCn2c(C#N)cc3c(C)c(CN4CCC(Nc5ncnc6sc(CC(F)(F)F)cc56)CC4)ccc32)C1 [Compound 31]
6,< 30 nM,C=CC(=O)N[C@@H]1CCN(CCn2c(C#N)cc3c(C)c(CN4CCC(Nc5ncnc6sc(CC(F)(F)F)cc56)CC4)ccc32)C1 [Compound 32]
7,30 to 100 nM,"C=CC(=O)Nc1nc(CCn2c(C#N)cc3c(C)c(CN4CCC(Nc5ncnc6sc(CC(F)(F)F)cc56)CC4)ccc32)cs1 [Compound 34, N-(4-(2-(2-cyano-4-methyl-5-((4-((6-(2,2,2-trifluoroethyl)thieno[2,3-d]pyrimidin-4-yl)amino)piperidin-1-yl)methyl)-1H-indol-1-yl)ethyl)thiazol-2-yl)acrylamide]"
8,< 30 nM,"C=CC(=O)Nc1ccc(CCn2c(C#N)cc3c(C)c(CN4CCC(Nc5ncnc6sc(CC(F)(F)F)cc56)CC4)ccc32)cc1 [Compound 81, N-(4-(2-(2-cyano-4-methyl-5-((4-(6-(2,2,2-trifluoroethyl)thieno[2,3-d]pyrimidin-4-ylamino)piperidin-1-yl)methyl)-1H-indol-1-yl)ethyl)phenyl)acrylamide]"
9,< 30 nM,"C=CC(=O)Nc1ccc(CCn2c(C#N)cc3c(C)c(CN4CCC(Nc5ncnc6sc(CC(F)(F)F)cc56)CC4)ccc32)cn1 [Compound 100, N-(5-(2-(2-cyano-4-methyl-5-((4-(6-(2,2,2-trifluoroethyl)thieno[2,3-d]pyrimidin-4-ylamino)piperidin-1-yl)methyl)-1H-indol-1-yl)ethyl)pyridin-2-yl)acrylamide]"
10,< 30 nM,C=CC(=O)Nc1ccc(C(O)Cn2c(C#N)cc3c(C)c(CN4CCC(Nc5ncnc6sc(CC(F)(F)F)cc56)CC4)ccc32)cc1 (stereo not shown) [Compound 101]
11,< 30 nM,CCC(=O)Nc1ccc(CCn2c(C#N)cc3c(C)c(CN4CCC(Nc5ncnc6sc(CC(F)(F)F)cc56)CC4)ccc32)cc1 [Compound 102]
12,30 to 100 nM,Cc1c(CN2CCC(Nc3ncnc4sc(CC(F)(F)F)cc34)CC2)ccc2c1cc(C#N)n2CCc1ccc(N)c(S(C)(=O)=O)c1 [Compound 104]
13,< 30 nM,C=CC(=O)Nc1ccc(CCn2c(C#N)cc3c(C)c(CN4CCC(Nc5ncnc6sc(CC(F)(F)F)cc56)CC4)ccc32)cc1S(C)(=O)=O [Compound 105]
14,30 to 100 nM,C/C=C/C(=O)Nc1ccc(CCn2c(C#N)cc3c(C)c(CN4CCC(Nc5ncnc6sc(CC(F)(F)F)cc56)CC4)ccc32)cn1 [Compound 106]
15,< 30 nM,C=CC(=O)Nc1ccc(C(O)Cn2c(C#N)cc3c(C)c(CN4CCC(Nc5ncnc6sc(CC(F)(F)F)cc56)CC4)ccc32)cn1 (stereo not shown) [Compound 112]
16,30 to 100 nM,C=CC(=O)Nc1ccc(C(C)(O)Cn2c(C#N)cc3c(C)c(CN4CCC(Nc5ncnc6sc(CC(F)(F)F)cc56)CC4)ccc32)cc1 (stereo not shown) [Compound 115]
17,< 30 nM,Cc1c(CN2CCC(Nc3ncnc4sc(CC(F)(F)F)cc34)CC2)ccc2c1cc(C#N)n2CCN1CC2CNCC2C1 (stereo not shown) [Compound 167]
18,30 to 100 nM,Cc1c(CN2CCC(Nc3ncnc4sc(CC(F)(F)F)cc34)CC2)ccc2c1cc(C#N)n2CCN1CCC2(CCNC2)CC1 [Compound 169]
19,30 to 100 nM,Cc1c(CN2CCC(Nc3ncnc4sc(CC(F)(F)F)cc34)CC2)ccc2c1cc(C#N)n2CCN1CCC2(CCNC2)C1 (stereo not shown) [Compound 171]
20,30 to 100 nM,C=CC(=O)N1CC2(CN(CCn3c(C#N)cc4c(C)c(CN5CCC(Nc6ncnc7sc(CC(F)(F)F)cc67)CC5)ccc43)C2)C1 [Compound 174]
21,30 to 100 nM,Cc1c(CN2CCC(Nc3ncnc4sc(CC(F)(F)F)cc34)CC2)ccc2c1cc(C#N)n2CCc1cccc(N)c1 [Compound 189]
22,100 to 1000 nM,C=CC(=O)Nc1cccc(CCn2c(C#N)cc3c(C)c(CN4CCC(Nc5ncnc6sc(CC(F)(F)F)cc56)CC4)ccc32)c1 [Compound 190]
23,100 to 1000 nM,C=CC(=O)Nc1cn(CCn2c(C#N)cc3c(C)c(CN4CCC(Nc5ncnc6sc(CC(F)(F)F)cc56)CC4)ccc32)cn1 [Compound 192]
24,100 to 1000 nM,Cc1c(CN2CCC(Nc3ncnc4sc(CC(F)(F)F)cc34)CC2)ccc2c1cc(C#N)n2CCc1ccc(N)c(C#N)c1 [Compound 193]
25,30 to 100 nM,C=CC(=O)Nc1ccc(CCn2c(C#N)cc3c(C)c(CN4CCC(Nc5ncnc6sc(CC(F)(F)F)cc56)CC4)ccc32)cc1C#N [Compound 194]

# Continued, compound first:
row,SMILES,IC50
1,C=CC(=O)N1CCN(CCn2c(C#N)cc3cc(CN4CCC(Nc5ccnc6sc(CC(F)(F)F)cc56)CC4)ccc32)CC1 [Compound 1],30 to 100 nM
2,C=CC(=O)N1CCN(CCCn2c(C#N)cc3cc(CN4CCC(Nc5ncnc6sc(CC(F)(F)F)cc56)CC4)ccc32)CC1 [Compound 2],30 to 100 nM
3,C/C=C/C(=O)N1CCN(CCn2c(C#N)cc3c(C)c(CN4CCC(Nc5ncnc6sc(CC(F)(F)F)cc56)CC4)ccc32)CC1 [Compound 4],< 30 nM
4,Cc1c(CN2CCC(Nc3ncnc4sc(CC(F)(F)F)cc34)CC2)ccc2c1cc(C#N)n2CCN1CCN(C(=O)/C=C/CN(C)C)CC1 [Compound 6],< 30 nM
5,C/C=C/S(=O)(=O)N1CCN(CCn2c(C#N)cc3c(C)c(CN4CCC(Nc5ncnc6sc(CC(F)(F)F)cc56)CC4)ccc32)CC1 [Compound 7],< 30 nM
6,C=CS(=O)(=O)N1CCC(CCn2c(C#N)cc3c(C)c(CN4CCC(Nc5ncnc6sc(CC(F)(F)F)cc56)CC4)ccc32)CC1 [Compound 8],< 30 nM
7,C=CC(=O)NCCC(O)(CO)Cn1c(C#N)cc2c(C)c(CN3CCC(Nc4ncnc5sc(CC(F)(F)F)cc45)CC3)ccc21 (stereo not shown) [Compound 11],< 30 nM
8,"C=CS(=O)(=O)N1CC2CC1CN2CCn1c(C#N)cc2c(C)c(CN3CCC(Nc4ncnc5sc(CC(F)(F)F)cc45)CC3)ccc21 (stereo not shown) [Compound 17, 4-methyl-5-((4-((6-(2,2,2-trifluoroethyl)thieno[2,3-d]pyrimidin-4-yl)amino)piperidin-1-yl)methyl)-1-(2-(5-(vinylsulfonyl)-2,5-diazabicyclo[2.2.1]heptan-2-yl)ethyl)-1H-indole-2-carbonitrile]",100 to 1000 nM
9,C=CS(=O)(=O)N1CC2CCC(C1)N2CCn1c(C#N)cc2c(C)c(CN3CCC(Nc4ncnc5sc(CC(F)(F)F)cc45)CC3)ccc21 [Compound 18],< 30 nM and 30 to 100 nM
10,C=CS(=O)(=O)N1C2CCC1CN(CCn1c(C#N)cc3c(C)c(CN4CCC(Nc5ncnc6sc(CC(F)(F)F)cc56)CC4)ccc31)C2 [Compound 23],< 30 nM
11,C=CC(=O)N1C2CCC1CN(CCn1c(C#N)cc3c(C)c(CN4CCC(Nc5ncnc6sc(CC(F)(F)F)cc56)CC4)ccc31)C2 [Compound 24],30 to 100 nM
12,C=CC(=O)NC1CCN(CCn2c(C#N)cc3c(C)c(CN4CCC(Nc5ncnc6sc(CC(F)(F)F)cc56)CC4)ccc32)CC1 [Compound 25],30 to 100 nM
13,Cc1c(CN2CCC(Nc3ncnc4sc(CC(F)(F)F)cc34)CC2)ccc2c1cc(C#N)n2CCN1CCC(NC(=O)/C=C/CN(C)C)CC1 [Compound 27],< 30 nM
14,C=CC(=O)N1CCCN(CCn2c(C#N)cc3c(C)c(CN4CCC(Nc5ncnc6sc(CC(F)(F)F)cc56)CC4)ccc32)CC1 [Compound 66],< 30 nM
15,C=CC(=O)NC1CCN(CCn2c(C#N)cc3cc(CN4CCC(Nc5ncnc6sc(CC(F)(F)F)cc56)CC4)c(O)cc32)CC1 [Compound 93],< 30 nM
16,C=CC(=O)NN1CCN(CCn2c(C#N)cc3c(C)c(CN4CCC(Nc5ncnc6sc(CC(F)(F)F)cc56)CC4)ccc32)CC1 [Compound 94],30 to 100 nM
17,CCC(=O)N1CCCN(CCn2c(C#N)cc3c(C)c(CN4CCC(Nc5ncnc6sc(CC(F)(F)F)cc56)CC4)ccc32)CC1 [Compound 103],30 to 100 nM
18,C=CC(=O)N1CC2CN(CCn3c(C#N)cc4c(C)c(CN5CCC(Nc6ncnc7sc(CC(F)(F)F)cc67)CC5)ccc43)CC2C1 (stereo not shown) [Compound 168],30 to 100 nM
19,C=CC(=O)N1CCC2(CCN(CCn3c(C#N)cc4c(C)c(CN5CCC(Nc6ncnc7sc(CC(F)(F)F)cc67)CC5)ccc43)CC2)C1 [Compound 170],30 to 100 nM
20,C=CC(=O)N1CCC2(CCN(CCn3c(C#N)cc4c(C)c(CN5CCC(Nc6ncnc7sc(CC(F)(F)F)cc67)CC5)ccc43)C2)C1 (stereo not shown) [Compound 172],30 to 100 nM
21,C=CC(=O)N1CCC2(CN(CCn3c(C#N)cc4c(C)c(CN5CCC(Nc6ncnc7sc(CC(F)(F)F)cc67)CC5)ccc43)C2)C1 [Compound 176],30 to 100 nM
22,C=CC(=O)N1CCC2(CC1)CN(CCn1c(C#N)cc3c(C)c(CN4CCC(Nc5ncnc6sc(CC(F)(F)F)cc56)CC4)ccc31)C2 [Compound 178],30 to 100 nM
23,C=CC(=O)N1CC2(CCN(CCn3c(C#N)cc4c(C)c(CN5CCC(Nc6ncnc7sc(CC(F)(F)F)cc67)CC5)ccc43)C2)C1 [Compound 182],30 to 100 nM
24,C=CC(=O)N1CC2(CCN(CCn3c(C#N)cc4c(C)c(CN5CCC(Nc6ncnc7sc(CC(F)(F)F)cc67)CC5)ccc43)CC2)C1 [Compound 184],< 30 nM
